{"source": "patent US20200290034A1", "about": "“COMPOSITION AND METHOD FOR REGENERATING CATION EXCHANGE RESINS” (Tygrus, LLC, priority 2019, published 2020)", "key": {"[1]": {"assay": "Excess hydrogen ion concentration and pH after admixing with water", "details": "5 ml material admixed in 5 ml deionized and distilled water, standard temperature and pressure"}, "[2]": {"assay": "Shelf-stability of stored samples", "type": "physicochemical", "details": "closed containers at standard temperature and 50% relative humidity", "excerpt": "The material produced in Example I is separated into individual samples. Some are stored in closed containers at standard temperature and 50% relative humidity to determine shelf-stability. Other samples are subjected to analytical procedures to determine composition. The test samples are subjected to FFTIR spectra analysis and titrated with hydrogen coulometry. The sample material has a molarity ranging from […] strength. The material has a gravimetric range greater than 1.15; with ranges greater than 1.9 in certain instances. The composition is stable and has a 1.87 to 1.78 molar material that contains 8 to 9% of the total moles of acid protons that are not charged balanced."}}}
{"substance": "hydrogen (1+), triaqua-μ3-oxotri sulfate (1:1) [Example I]", "values": [{"measurement": "excess hydrogen ion concentration", "setting": "[1]", "result": "greater than 15 % by volume"}, {"measurement": "pH", "setting": "[1]", "result": 1}, {"measurement": "shelf-stability", "setting": "[2]", "result": "stable"}]}
